Assay results: patent publication US3954767A, “Piperazine salts of 2,5-dihydroxy benzene sulfonic acid mono- and diesters” (priority 1972, dated 1976)
Where a name gives a salt, the structure may show the parent alone.

Tested on: rats treated with Triton WR-1339
Assay: Hypolipemic action on the rat, Triton WR-1339 method
Assay type: in vivo
Settings: for Percentage reduction of lipids: Cholesterol / Percentage reduction of lipids: Total Lipids / Percentage reduction of lipids: Triglycerides: Table VI, with respect to Triton WR-1339
Description: The above-mentioned Triton WR-1339 method was selected. The total cholesterol, triglycerides and total lipids were determined in the serum. The amount of Triton WR-1339 administered to the animals was 300 mg/kg. The amount of piperazine 2,5-dihydroxy benzene sulfonate mono-tosylate administered was 2 mMoles/Kg orally. The letter P signifies probability.
The above-mentioned Triton WR-1339 method was selected. The total cholesterol, triglycerides and total lipids were determined in the serum. The results obtained are given in Table V. The amount of Triton WR-1339 administered to the animals was 300 mg/Kg. The amount of the piperazine salt with one mole of the di-0-(p-chloro phenoxy isobutyrate) of 2,5-dihydroxy benzene sulfonic acid administered was 1 mMol/Kg orally. The letter P signifies probability.
In this Triton WR-1339 method, all the compounds are administered at a dose of 2 mMoles/Kg orally excepted those compounds in which is the residue of p-chlorophenoxy isobutyric acid, which are administered orally at a dose corresponding to 2 mMoles of R per Kg, i.e. the amount used is calculated on the basis of the residue R only.

[1] = orally, 2 mMoles of R (p-chlorophenoxy isobutyric acid residue) per Kg
[2] = orally, 2 mMoles of R (p-chlorophenoxy isobutyric acid residue) per Kg, dihydrate
[3] = Triton 300 mg/Kg + compound 1 mMol/Kg orally, 0,005<P<0,010

| SMILES | Percentage reduction of lipids: Cholesterol [1] | Percentage reduction of lipids: Total Lipids [1] | Percentage reduction of lipids: Triglycerides [1] | Percentage reduction of lipids: Cholesterol (2 mMoles/Kg orally) | Percentage reduction of lipids: Total Lipids (2 mMoles/Kg orally) | Percentage reduction of lipids: Triglycerides (2 mMoles/Kg orally) | other results |
| --- | --- | --- | --- | --- | --- | --- | --- |
| CC(C)(Oc1ccc(Cl)cc1)C(=O)Oc1ccc(OC(=O)C(C)(C)Oc2ccc(Cl)cc2)c(S(=O)(=O)O)c1 [calcium salt of di-O-(p-chloro phenoxy isobutyrate) of 2,5-d] [calcium salt of di-O-(p-chlorophenoxy isobutyrate) of 2,5-dihydroxy benzene sulfonic acid] | 27% | 29% | 33% |  |  |  |  |
| CC(C)(Oc1ccc(Cl)cc1)C(=O)Oc1ccc(O)c(S(=O)(=O)O)c1 [calcium salt of mono-O-(p-chloro phenoxy isobutyrate) of 2,5] [calcium salt of mono-O-(p-chlorophenoxy isobutyrate) of 2,5-dihydroxybenzene sulfonic acid] | 27% | 26% | 40% |  |  |  |  |
| CC(C)(Oc1ccc(Cl)cc1)C(=O)Oc1ccc(O)c(S(=O)(=O)O)c1 [di-salt of piperazine of mono-O-(p-chloro phenoxy isobutyrat] [di-salt of piperazine of mono-O-(p-chlorophenoxy isobutyrate) of 2,5-dihydroxy benzene sulfonic acid] | 16% | 26% | 31% |  |  |  |  |
| O=C(Oc1ccc(OC(=O)c2ccccc2)c(S(=O)(=O)O)c1)c1ccccc1 [diethylamine 2,5-dihydroxybenzenesulfonate dibenzoate] [diethylamine 2.5-dihydroxybenzensulphonate dibenzoate] |  |  |  | 12% | 22% | 14% |  |
| CC(C)(Oc1ccc(Cl)cc1)C(=O)Oc1ccc(O)cc1S(=O)(=O)O [magnesium 2-O-(p-chlorophenoxyisobutyryl) 2,5-dihydroxybenzene sulfonate dihydrate] |  |  |  |  |  |  | Percentage reduction of lipids: Cholesterol [2]: 18%; Percentage reduction of lipids: Total Lipids [2]: 27%; Percentage reduction of lipids: Triglycerides [2]: 21% |
| CC(C)(Oc1ccc(Cl)cc1)C(=O)Oc1ccc(O)c(S(=O)(=O)O)c1 [magnesium salt of mono-O-(p-chloro phenoxy isobutyrate) of 2] [magnesium salt of mono-O-(p-chlorophenoxy isobutyrate) of 2,5-dihydroxy benzene sulfonic acid] | 19% | 28% | 44% |  |  |  |  |
| CC(C)(Oc1ccc(Cl)cc1)C(=O)Oc1ccc(O)c(S(=O)(=O)O)c1 [mono-salt of piperazine of mono-O-(p-chloro phenoxy isobutyr] [mono-salt of piperazine of mono-O-(p-chlorophenoxy isobutyrate) of 2,5-dihydroxy benzene sulfonic acid] | 9% | 25% | 49% |  |  |  |  |
| O=C(Oc1ccc(OC(=O)c2ccccc2)c(S(=O)(=O)O)c1)c1ccccc1 [morpholine 2,5-dihydroxybenzenesulfonate dibenzoate] [morpholine 2.5-dihydroxybenzenesulphonate dibenzoate] |  |  |  | 12% | 21% | 17% |  |
| O=C(Oc1ccc(OC(=O)c2ccccc2)c(S(=O)(=O)O)c1)c1ccccc1 [piperazine 2,5-dihydroxybenzenesulfonate dibenzoate] [piperazine 2.5-dihydroxybenzenesulphonatedibenzoate] |  |  |  | 13% | 20% | 18% |  |
| O=C(Oc1ccc(OC(=O)c2ccccc2)c(S(=O)(=O)O)c1)c1ccccc1 [piperazine bis(2,5-dihydroxybenzene sulfonate dibenzoate)] [piperazine bis(2.5-dihydroxybenzenesulphonate dibenzoate)] |  |  |  | 9% | 16% | 14% |  |
| Cc1ccc(S(=O)(=O)Oc2ccc(O)c(S(=O)(=O)O)c2)cc1 [piperazine bis(2,5-dihydroxybenzenesulfonate monotosylate)] [piperazine bis(2.5-dihydroxybenzenesulphonate monotosylate)] |  |  |  | 11% | 17% | 25% |  |
| CC(C)(Oc1ccc(Cl)cc1)C(=O)Oc1ccc(OC(=O)C(C)(C)Oc2ccc(Cl)cc2)c(S(=O)(=O)O)c1 [piperazine di-salt of di-O-(p-chloro phenoxy isobutyrate) of] [piperazine di-salt of di-O-(p-chlorophenoxy isobutyrate) of 2,5-dihydroxy benzene sulfonic acid] | 29% | 37% | 21% |  |  |  |  |
| CC(C)(Oc1ccc(Cl)cc1)C(=O)Oc1ccc(OC(=O)C(C)(C)Oc2ccc(Cl)cc2)c(S(=O)(=O)O)c1 [piperazine mono-salt of di-O-(p-chloro phenoxy isobutyrate) ] [piperazine mono-salt of di-O-(p-chlorophenoxy isobutyrate) of 2,5-dihydroxy benzene sulfonic acid] | 25% | 28% | 49% |  |  |  | total cholesterol (Triton 300 mg/Kg + compound 1 mMol/Kg orally, 0,0025<P<0,005): 212,5 mg % ml of plasma; total lipids [3]: 1503,8 mg % ml of plasma; triglycerides [3]: 572,5 mg % ml of plasma |
| O=C(Oc1ccc(OC(=O)c2ccccc2)c(S(=O)(=O)O)c1)c1ccccc1 [piperidine 2,5-dihydroxybenzenesulfonate dibenzoate] [piperidine 2.5-dihydroxybenzenesulphonate dibenzoate] |  |  |  | 14% | 23% | 19% |  |
| Cc1ccc(S(=O)(=O)Oc2ccc(O)c(S(=O)(=O)O)c2)cc1 [piperidine bis(2,5-dihydroxybenzenesulfonate monotosylate)] [piperidine 2.5-dihydroxybenzenesulphonate monotosylate] |  |  |  | 15% | 33% | 26% |  |
| O=C(Oc1ccc(O)c(S(=O)(=O)O)c1)c1cccnc1 [pyridine 2,5-dihydroxybenzene sulfonate mono nicotinate] |  |  |  | 17% | 25% | 24% |  |
| CC(C)(Oc1ccc(Cl)cc1)C(=O)Oc1ccc(O)c(S(=O)(=O)O)c1 [pyridine 2,5-dihydroxybenzenesulfonate mono-p-chloro phenoxy] [mono-p-chloro phenoxy isobutyrate of pyridine 2,5-dihydroxy benzene sulfonate] | 16% | 23% | 27% |  |  |  |  |
| CC(C)(Oc1ccc(Cl)cc1)C(=O)Oc1ccc(OC(=O)C(C)(C)Oc2ccc(Cl)cc2)c(S(=O)(=O)O)c1 [pyridine salt of di-O-(p-chloro phenoxy isobutyrate) of 2,5-] [pyridine salt of the di-O-(p-chlorophenoxy isobutyrate) of 2,5-dihydroxy benzene sulfonic acid] | 20% | 31% | 32% |  |  |  |  |
| O=C(Oc1ccc(OC(=O)c2ccccc2)c(S(=O)(=O)O)c1)c1ccccc1 [sodium 2,5-dihydroxybenzenesulfonate dibenzoate] [sodium 2.5-dihydroxybenzenesulphonate dibenzoate] |  |  |  | 12% | 20% | 17% |  |
| Cc1ccc(S(=O)(=O)Oc2ccc(O)c(S(=O)(=O)O)c2)cc1 [sodium 2,5-dihydroxybenzenesulfonate monotosylate] [sodium 2,5-dihydroxy benzene sulfonate mono-tosylate] |  |  |  | 10% | 39% | 36% |  |
